Data as given in PubChem BioAssay AID328 (DTP/NCI, 2004).
Toxic doses and inconclusive results are not listed. How the source made its calls: active means survival T/C of 150% or more; inactive means T/C below 125% in these data.

Legend:
[1] = system: BDF1 mice, P388 leukemia ip; test: NCI In Vivo Anticancer Drug Screen. Data for tumor model P388 Leukemia (intraperitoneal) in B6D2F1 (BDF1) mice; details: endpoint: mean survival time, schedule: Q01DX009 (ip), vehicle: water, higher = longer survival
How it was run: (§1)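 Antitumour effect was judged in vivo: survival in drug-treated mice, normalised to that of vehicle-dosed controls, gives the reported T/C.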

[2] = system: BDF1 mice, P388 leukemia ip, median survival T/C; test: as above; details: endpoint: median survival time, higher = longer survival
How it was run: as §1

[3] = dose: 50.0 mg/kg/injection, schedule: Q01DX009 (ip), vehicle: saline with Tween-80
[4] = dose: 100.0 mg/kg/injection, schedule: Q01DX009 (ip), vehicle: saline with Tween-80
[5] = dose: 200.0 mg/kg/injection, schedule: Q01DX009 (ip), vehicle: saline with Tween-80
[6] = dose: 100.0 mg/kg/injection, schedule: Q01DX001 (ip), vehicle: saline with Tween-80
[7] = dose: 400.0 mg/kg/injection, schedule: Q01DX009 (ip), vehicle: saline with Tween-80
[8] = dose: 25.0 mg/kg/injection, schedule: Q04DX003 (ip), vehicle: Klucel (hydroxypropylcellulose) (HPC)
[9] = dose: 50.0 mg/kg/injection, schedule: Q04DX003 (ip), vehicle: Klucel (hydroxypropylcellulose) (HPC)
[10] = dose: 400.0 mg/kg/injection, schedule: Q01DX001 (ip), vehicle: saline
[11] = dose: 100.0 mg/kg/injection, schedule: Q04DX003 (ip), vehicle: saline
[12] = dose: 200.0 mg/kg/injection, schedule: Q04DX003 (ip), vehicle: saline
[13] = dose: 200.0 mg/kg/injection, schedule: Q01DX001 (ip), vehicle: saline with Tween-80
[14] = dose: 400.0 mg/kg/injection, schedule: Q01DX001 (ip), vehicle: saline with Tween-80
[15] = dose: 400.0 mg/kg/injection, schedule: Q04DX003 (ip), vehicle: saline with Tween-80

Measured: T/C

COc1cc2cnccc2cc1OCc1ccccc1
inactive: [1]; dose: 6.25 mg/kg/injection 95 % of control | [1]; dose: 12.5 mg/kg/injection 100 % of control | [1]; dose: 25.0 mg/kg/injection 106 % of control | [1]; dose: 50.0 mg/kg/injection 108 % of control | [1]; dose: 100.0 mg/kg/injection 90 % of control | [1]; dose: 200.0 mg/kg/injection 100 % of control

CCOC(=O)CSc1sc(C(=O)OCC)c(N)c1C#N
inactive: [2]; dose: 12.5 mg/kg/injection, schedule: Q01DX009 (ip), vehicle: saline with Tween-80 99 % of control | [2]; dose: 25.0 mg/kg/injection, schedule: Q01DX009 (ip), vehicle: saline with Tween-80 99 % of control | [2]; [3] 99 % of control

FC(F)(F)c1nc(Cl)nc(Cl)c1Cl
inactive: [2]; dose: 3.12 mg/kg/injection, schedule: Q01DX005 (ip), vehicle: saline 105 % of control | [2]; dose: 6.25 mg/kg/injection, schedule: Q01DX005 (ip), vehicle: saline 100 % of control | [2]; dose: 12.5 mg/kg/injection, schedule: Q01DX005 (ip), vehicle: saline 110 % of control

CCOC(=O)N(CCN(C(=O)OCC)c1ccccc1)c1ccccc1
inactive: [2]; [3] 98 % of control | [2]; [4] 108 % of control | [2]; [5] 110 % of control

O=[N+]([O-])c1ccc2c(N=Nc3c(O)ccc4ccccc34)c(O)cc(S(=O)(=O)O)c2c1
inactive: [2]; dose: 25.0 mg/kg/injection, schedule: Q01DX001 (ip), vehicle: saline with Tween-80 104 % of control | [2]; dose: 50.0 mg/kg/injection, schedule: Q01DX001 (ip), vehicle: saline with Tween-80 100 % of control | [2]; [6] 100 % of control | [2]; [4] 104 % of control | [2]; [7] 100 % of control

CC(C)(C)C1Sc2nc3ccccc3n2C1=O (configuration not stated)
inactive: [2]; dose: 12.5 mg/kg/injection, schedule: Q01DX009 (ip), vehicle: Klucel (hydroxypropylcellulose) (HPC) 114 % of control | [2]; dose: 12.5 mg/kg/injection, schedule: Q04DX003 (ip), vehicle: Klucel (hydroxypropylcellulose) (HPC) 100 % of control | [2]; dose: 25.0 mg/kg/injection, schedule: Q01DX009 (ip), vehicle: Klucel (hydroxypropylcellulose) (HPC) 114 % of control | [2]; [8] 120 % of control | [2]; [9] 120 % of control

CC(C)C1(C)NC(=O)NC1=O (configuration not stated)
inactive: [2]; dose: 100.0 mg/kg/injection, schedule: Q01DX001 (ip), vehicle: saline 113 % of control | [2]; dose: 200.0 mg/kg/injection, schedule: Q01DX001 (ip), vehicle: saline 109 % of control | [2]; [10] 95 % of control

NC(N)=NCCCCCC(=O)O
inactive: [2]; [11] 104 % of control | [2]; [12] 109 % of control | [2]; [10] 87 % of control

Cc1ccc(S(=O)(=O)Oc2ccc(-c3ccc(Br)cc3)cc2)cc1
inactive: [2]; [3] 96 % of control | [2]; [4] 96 % of control | [2]; [5] 101 % of control | [2]; [7] 92 % of control

NNc1n[nH]c(=S)n1N
inactive: [2]; dose: 6.25 mg/kg/injection, schedule: Q04DX003 (ip), vehicle: saline with Tween-80 104 % of control | [2]; dose: 12.5 mg/kg/injection, schedule: Q04DX003 (ip), vehicle: saline with Tween-80 100 % of control | [2]; dose: 25.0 mg/kg/injection, schedule: Q04DX003 (ip), vehicle: saline with Tween-80 95 % of control

CC1C/C(=C\NC(N)=O)C(=O)O1 (configuration not stated)
inactive: [2]; dose: 100.0 mg/kg/injection, schedule: Q04DX003 (ip), vehicle: water 103 % of control | [2]; dose: 200.0 mg/kg/injection, schedule: Q04DX003 (ip), vehicle: water 102 % of control | [2]; dose: 400.0 mg/kg/injection, schedule: Q04DX003 (ip), vehicle: water 103 % of control

N#Cc1c(O)oc2cccnc12
inactive: [2]; dose: 50.0 mg/kg/injection, schedule: Q01DX005 (ip), vehicle: saline with Tween-80 92 % of control | [2]; dose: 100.0 mg/kg/injection, schedule: Q01DX005 (ip), vehicle: saline with Tween-80 97 % of control | [2]; dose: 200.0 mg/kg/injection, schedule: Q01DX005 (ip), vehicle: saline with Tween-80 103 % of control

O=C(Cn1ccc(O)cc1=O)c1cccs1
inactive: [2]; [4] 97 % of control | [2]; [5] 97 % of control | [2]; [7] 97 % of control

COc1cc([C@@H]2c3cc4c(cc3[C@H](O)[C@H]3COC(=O)[C@H]23)OCO4)cc(OC)c1OC
inactive: [2]; dose: 1.0 mg/kg/injection, schedule: Q01DX010 (ip), vehicle: steriod suspending solution 118 % of control | [2]; dose: 2.25 mg/kg/injection, schedule: Q01DX001 (ip), vehicle: other 115 % of control | [2]; dose: 4.0 mg/kg/injection, schedule: Q01DX010 (ip), vehicle: carboxymethylcellulose (CMC) 95 % of control | [2]; dose: 9.0 mg/kg/injection, schedule: Q01DX001 (ip), vehicle: other 115 % of control | [2]; dose: 9.0 mg/kg/injection, schedule: Q01DX010 (ip), vehicle: other 95 % of control
active: [2]; dose: 2.0 mg/kg/injection, schedule: Q01DX010 (ip), vehicle: carboxymethylcellulose (CMC) 171 % of control | [2]; dose: 2.25 mg/kg/injection, schedule: Q01DX010 (ip), vehicle: other 150 % of control | [2]; dose: 4.5 mg/kg/injection, schedule: Q01DX010 (ip), vehicle: other 154 % of control

CC1(C)N=C(c2ccc3ccccc3c2)CC1C#N (configuration not stated)
inactive: [2]; [6] 100 % of control | [2]; [13] 100 % of control | [2]; [14] 95 % of control

c1csc(-c2nc3ccccc3s2)c1
inactive: [2]; dose: 100.0 mg/kg/injection, schedule: Q04DX003 (ip), vehicle: saline with Tween-80 109 % of control | [2]; dose: 200.0 mg/kg/injection, schedule: Q04DX003 (ip), vehicle: saline with Tween-80 100 % of control | [2]; [15] 100 % of control

CCCCCN(C)/N=N/c1nc[nH]c1C(N)=O
inactive: [2]; [5] 100 % of control | [2]; dose: 264.0 mg/kg/injection, schedule: Q04DX003 (ip), vehicle: Klucel (hydroxypropylcellulose) (HPC) 90 % of control | [2]; dose: 400.0 mg/kg/injection, schedule: Q04DX003 (ip), vehicle: Klucel (hydroxypropylcellulose) (HPC) 86 % of control

CC1=C(Br)C(=O)C(Br)=C(Br)C1=O
inactive: [2]; [8] 104 % of control | [2]; dose: 35.0 mg/kg/injection, schedule: Q01DX009 (ip), vehicle: Klucel (hydroxypropylcellulose) (HPC) 109 % of control | [2]; dose: 37.5 mg/kg/injection, schedule: Q01DX001 (ip), vehicle: Klucel (hydroxypropylcellulose) (HPC) 95 % of control | [2]; [9] 100 % of control | [2]; dose: 55.0 mg/kg/injection, schedule: Q01DX009 (ip), vehicle: Klucel (hydroxypropylcellulose) (HPC) 90 % of control | [2]; dose: 75.0 mg/kg/injection, schedule: Q01DX001 (ip), vehicle: Klucel (hydroxypropylcellulose) (HPC) 109 % of control | [2]; dose: 100.0 mg/kg/injection, schedule: Q04DX003 (ip), vehicle: Klucel (hydroxypropylcellulose) (HPC) 90 % of control | [2]; dose: 150.0 mg/kg/injection, schedule: Q01DX001 (ip), vehicle: Klucel (hydroxypropylcellulose) (HPC) 100 % of control

O=c1c2ccccc2ncn1-c1ccc(Cl)cc1
inactive: [2]; [3] 97 % of control | [2]; [4] 100 % of control | [2]; [5] 100 % of control

CC(C)CCOP(=S)(N1CC1)N1CC1
active: [2]; [15] 177 % of control

Cc1ccn2c(CCc3nnc4cc(C)ccn34)nnc2c1
inactive: [2]; [3] 90 % of control | [2]; [4] 93 % of control | [2]; [5] 106 % of control

CC1(C)OC(=O)CC(=O)O1
inactive: [2]; dose: 100.0 mg/kg/injection, schedule: Q01DX009 (ip), vehicle: saline 105 % of control | [2]; [11] 91 % of control | [2]; dose: 200.0 mg/kg/injection, schedule: Q01DX009 (ip), vehicle: saline 100 % of control | [2]; [12] 91 % of control | [2]; dose: 400.0 mg/kg/injection, schedule: Q04DX003 (ip), vehicle: saline 100 % of control

CCOC(=O)c1cn(COC)c2nc(SC)nc(NC(C)=O)c2c1=O
inactive: [2]; [6] 105 % of control | [2]; [13] 90 % of control | [2]; [14] 90 % of control
